Bridge positions count the residues as written; N and C are the ends. Ends that are not written are not given here. Peptide text beside a SMILES is read from it.
Assays:
[1] = target: T1, F1-gp120 binding to CD4+ human cells (Human immunodeficiency virus type 1 group M subtype B, UniProt P04578); experiment: Inhibition of fluoresceinated gp120 binding to CD4+ cells (flow microfluorimetry); settings: compound 1 mg
T1 construct: Recombinant gp-120 was obtained from Raymond Sweet at Smith Kline Beecham and directly fluoresceinated; purchased Raymond Sweet at Smith Kline Beecham (obtained, not a catalogue product); host or cells: CD4+ human cells (Jurkat CD4+)
Procedure: This assay uses fluoresceinated gp120 and monitors its ability to bind to CD4+.
Recombinant gp-120 was obtained from Raymond Sweet at Smith Kline Beecham and directly fluoresceinated. Flow microfluorimetry was performed using a FACScan. Chen, et al., (1992) Proc. Nat'l. Acad. Sci. U.S.A., 89:5872-5876; Weiner, et al., (1990) Cancer Detection and Prevention, 14:317-320; and Weiner, et al., (1990) Vaccines, 339-345, discloses the assay was done using the CD4 related synthetic compounds or, separately, monoclonal anti-CD4 antibody as described.

CD4+ T cells = experiment: Blocking of T cell activation by tetanus toxoid (3H-TdR incorporation); type: cell-based; set-up: dose or concentration left out as unconfirmed; settings: 10^4 T cells + tetanus toxoid, 48 hours
Procedure: 10^4 blood monocytes were pulsed with […] of tetanus toxoid for
hours. 10^4 CD4+ T cells were added with the compounds […] in
a final volume of […] of media. The cells were pulsed with […]
HTdR and assayed at 48 hours.

[2] = test system: ABA delayed type hypersensitivity; experiment: In vivo inflammation: delayed type hypersensitivity to azobenzenearsonate (ABA); set-up: species or system mouse; settings: 100 μg total dose
Procedure: The effects of macrocyclics on in vivo inflammation were examined as follows. The effects of cyclic compounds disclosed in Table I on in vivo inflammatory response to Azobenzenearsonate was performed using treated groups of ABA primed normal Balb/c or Va3.1 transgenic mice with either 1) intravenously administered anti-CD4 monoclonal antibodies, 2) intravenously administered anti-class II antibodies, 3) systemically administered soluble forms of the most efficacious constrained macrocyclics 4) intravenously administered ABA coupled mononuclear cells, and 5) control antibodies and control macrocyclics. […]
The delayed type hypersensitivity assay is performed as follows. Five days after priming a mouse with hapten coupled cells, the hind left footpad is measured using an engineer's caliper (Fowler). […] Twenty four hours later, the degree of swelling is measured in the footpad. […]
For priming, mice (normal or transgenic with a T-cell receptor that recognizes ABA) are injected subcutaneously in each flank using a 23 g needle with 0.1 ml of ABA- or TNP-coupled spleen cells (3×10^7).Five days later, ear thickness and footpad thickness is measured with a caliper. […] Twenty four hours after challenge, the ears and footpads are measured and the animals sacrificed by cervical dislocation. […]

[3] = test system: responder CD4+ T cells + allogeneic cells; experiment: Blocking of the mixed lymphocyte response; type: cell-based, human; settings: .1 mg printed in table line
Procedure: Responder purified CD4+ T cells were used in a mixed lymphocyte response against completely allogeneic human cells. The compounds were added at 10 μg/ml final concentration. The number of responder cells was 10^5 and the number of stimulators 4×10^5 cells per well.

HIV-1MN = experiment: Syncytium assay, HIV; type: cell-based; settings: for syncytia: none 100
Procedure: Chen, et al., (1992) Proc. Nat'l. Acad. Sci. U.S.A., 89:5872-5876; Weiner, et al. (1990) Cancer Detection and Prevention, 14:317-320, discloses Sup T1 cells are used as target cells because of their rapid and high degree of fusion when co-cultured with HIV-1 producing cell lines. Uninfected target cells were assayed by co-culture with HIV-infected cells (H9/IIIB.) Washed, HIV-infected cells are plated in 96-well plates (10^4 cells/well in RPMI 1640+10% FCS) and incubated for 30 min at 37° C. Target cells are then added at 5×10^5 /well and the number of syncytia is qualitatively determined after a 48-hour incubation period. CD4 forms to be tested are added at time 0 or 24 hours after the assay has been initiated. Graded doses are used, controls including random linear peptides are also added independently. sCD4 and antibodies to CD4 are used as positive controls.
Another neutralization assay which is used in the field is as follows. One hundred TCID50 of HIV-1/IIIB or HIV-1/MN cell-free virus is preincubated with serial dilutions of compounds for 1 hour at 37° C. Following incubation, the pretreated virus was then plated on 4×10^4 MT-2 target cells, for 1 hour at 37° C. The MT-2 cells were then washed 3 times and incubated at 37° C. with 5% CO2. Fusion was evaluated 3 days later quantitatively by counting the number of syncytia per well in triplicate under a phase contrast microscope. The neutralization value (the ability of a compound to inhibit HIV infection 0 Vn/Vo) is calculated by dividing the mean number of syncytia per well following treatment with specific antiserum by the mean number of syncytia per well without antiserum (see: Montefiori, et al., (1988) J. Clin. Microbiol., 26:231-235).

sCD4 binding to DRb2 = target: T2, sCD4 binding to DRb2 (Homo sapiens, UniProt P01911); experiment: CD4 receptor-DRb2 blocking: 125I-sCD4 binding to immobilized DRb2 peptide
T2 construct: made in house
Procedure: The peptidic fragment is first coupled to activated sepharose 4B (0.5 mg of peptide/ml of beads).
75 μg of the recombinant soluble CD4 was labelled with 2 mCi of Bolotn Hunter reagent (Dupont/New England Nuclear) in 100 mM sodium borate, pH 8.5, in a volume of 150 μl. The labelled CD4 was separated from the unconjugated reagent on a G-50 Sephadex column containing PBS/0.1% gelatin and stored at -70° C.
HPLC purified forms of the DRb2 peptide were prepared. The peptide ([…] in 0.1M ammonium bicarbonate, pH 7.8) was immobilized on Falcon microtiter plates by overnight exposure. After washing several times and blocking with 2% BSA in HBSS pH 7.6 for 2 hours we add […] of ^125 I labelled sCD4. After 1 hour at room temperature the wells are washed 5× and the radioactivity counted.

Compound: CC(C)C[C@@H]1NC(=O)[C@H](Cc2ccccc2)NC(=O)[C@H](CO)NC(=O)CNC(=O)[C@H](CCC(N)=O)NC(=O)[C@H](CC(N)=O)NC(=O)[C@@H](NC(=O)[C@@H](N)Cc2ccc(O)cc2)CSSC[C@@H](C(=O)N[C@@H](Cc2ccc(O)cc2)C(=O)O)NC1=O [SEQ ID NO:1, Y, C, N, Q, G, S, F, L, C, Y] (H-YCNQGSFLCY-OH; disulfide 2-9)
- % Inhibition [1]: 33%
- % response (CD4+ T cells): 77%

Compound: C[C@@H](O)[C@@H]1NC(=O)[C@@H](NC(=O)[C@@H](N)Cc2ccccc2)CSSC[C@@H](C(=O)N[C@@H](Cc2ccc(O)cc2)C(=O)O)NC(=O)[C@H](CCCCN)NC(=O)[C@H](CO)NC(=O)[C@@H]2CCCN2C(=O)CNC(=O)[C@H](CCCCN)NC1=O [SEQ ID NO:3, F, C, T, K, G, P, S, K, C, Y] (H-FCTKGPSKCY-OH; disulfide 2-9)
- % Inhibition [1]: 83%

Compound: CDR2R: macrocyclic compound modeled to bind to the reovirus receptor on activated T cells; probably SEQ ID NO:10 (FKTNKCIYSGSTCQF; disulfide 6-13 (inferred))
- reducing in vivo delayed type hypersensitivity to ABA [2]: efficacious

Compound: CC(C)C[C@@H]1NC(=O)[C@@H](NC(=O)[C@@H](N)Cc2ccccc2)CSSC[C@@H](C(=O)N[C@@H](Cc2ccc(O)cc2)C(=O)O)NC(=O)[C@H](CC(C)C)NC(=O)[C@H](C(C)C)NC(=O)[C@H](CCC(N)=O)NC(=O)CNC(=O)[C@H](CO)NC(=O)[C@H](CC(=O)O)NC(=O)[C@H](CO)NC1=O [SEQ ID NO:9, F, C, L, S, D, S, G, Q, V, L, C, Y] (H-FCLSDSGQVLCY-OH; disulfide 2-11)
- % Inhibition [1]: 8%
- % response (CD4+ T cells): 100%

Compound: CC(C)[C@@H]1NC(=O)[C@H](CCC(=O)O)NC(=O)[C@@H](NC(=O)[C@@H](N)Cc2ccccc2)CSSC[C@@H](C(=O)N[C@@H](Cc2ccc(O)cc2)C(=O)O)NC(=O)[C@H](CCC(=O)O)NC(=O)[C@H](CCCCN)NC(=O)[C@H](CCC(N)=O)NC(=O)[C@H](CC(=O)O)NC(=O)[C@H](CCC(=O)O)NC1=O [SEQ ID NO:8, F, C, E, V, E, D, Q, K, E, C, Y] (H-FCEVEDQKECY-OH; disulfide 2-10)
- % Inhibition [1]: 83%

Compound: F, C, Y, I, C, E, V, E, D, Q, C, Y (FCYICEVEDQCY; also: cyclized, ring type and places not given here) [SEQ ID NO:7, CD4, 84-91 cyclized, CDR3-like, Human]
- % inhibition of MLR [3]: 48%
- (cpm) ([3]; control 85,000): 55,000 cpm
- % protection from syncytia (HIV-1MN; 6.125 μg): 48%
- syncytia (HIV-1MN; 6.125 μg): 35
- % protection from syncytia (HIV-1MN; 12.5 μg): 88%
- syncytia (HIV-1MN; 12.5 μg): 15
- % inhibition of sCD4 binding (sCD4 binding to DRb2; .1 mg compound, first experiment): 48%
- Bound CD4 (cpm) (sCD4 binding to DRb2; .1 mg compound, first experiment (none 3600, no DRb2 1100)): 2400 cpm
- % inhibition of sCD4 binding (sCD4 binding to DRb2; .5 mg compound, first experiment): 88%
- Bound CD4 (cpm) (sCD4 binding to DRb2; .5 mg compound, first experiment (none 3600, no DRb2 1100)): 1400 cpm
- % inhibition of sCD4 binding (sCD4 binding to DRb2; Experiment 2, amount not given): 100%
- Bound CD4 (cpm) (sCD4 binding to DRb2; Experiment 2, amount not printed (none 2000, no DRb2 1100)): 800 cpm
- % Inhibition [1]: 75%
- Mean Channel Fluorescence ([1]; none 21, background 9): 12
- % response (CD4+ T cells): 55%
- 3H-TdR incorporation (cpm) (CD4+ T cells; none 45,090 cpm): 25,000 cpm

— patent US6100377A, “Constrained peptides” (The Trustees of the University of Pennsylvania, priority 1994, dated 2000)
